Test system: mouse DTH model
Assay: Mouse delayed-type hypersensitivity (DTH) model, oxazalone ear swelling
Format: in vivo
Details: BALB/c mice, oxazalone challenge of right ear, 24 hr after challenge; histology FIGS. 15C-15D
Procedure: Mouse DTH in-vivo assay is an inflammatory model which is known as type IV hypersensitivity reactions and is mediated by soluble antigens primarily involving CD4+ or CD8+ T cell activation. This assay is characterized by the release of mediators from activated T cells. The T cells then activate local endothelial cells and recruit macrophages, which results in local inflammation and swelling. In this assay, female BALB/c mice were sensitized on the shaved abdominal skin with 100 μl of 2% oxazalone dissolved in acetone/olive oil [4:1 (vol/vol)] applied topically (day 0). DTH sensitivity was elicited 6 days later by challenging the mice with 20 μl of 0.5% oxazalone in acetone/olive oil, 10 μl administered topically to each side of the right ear. Control group was subcutaneously injected with Dexamethasone 100 μg/mouse in a total volume of 200 μl. 24 hr after challenge the swelling of the right ear was measured using a Micrometer, digital caliper (Mitutoyo Corp, Tokyo, Japan). The swelling of the left ear was served as control and the readout of this experiment model was the delta between the right and left ear (FIG. 15E).

`OC1(c2ccc(Cl)c(C(F)(F)F)c2)CCN(CCCC(c2ccc(F)cc2)c2ccc(F)cc2)CC1` [Penfluridol] was tested, and the “effect in mouse DTH model” value was “pro-inflammatory effect”.

Reference: patent US12650423B2, “Pharmaceutical compositions and use thereof” (HADASIT MEDICAL RESEARCH SERVICES & DEVELOPMENT LTD., priority 2020, dated 2026)
